Consider one molecule from publication PMC6030077, “Dual role of HDAC10 in lysosomal exocytosis and DNA repair promotes neuroblastoma chemoresistance” (Scientific Reports, 2018).

The target of one assay is T1, HDAC10 (Homo sapiens, UniProt Q969S8).
T1 construct: NanoLuc®-HDAC10 FL Fusion Vector; host or cells: HeLa cells, stably transfected
T1 sequence (Q969S8 1-669): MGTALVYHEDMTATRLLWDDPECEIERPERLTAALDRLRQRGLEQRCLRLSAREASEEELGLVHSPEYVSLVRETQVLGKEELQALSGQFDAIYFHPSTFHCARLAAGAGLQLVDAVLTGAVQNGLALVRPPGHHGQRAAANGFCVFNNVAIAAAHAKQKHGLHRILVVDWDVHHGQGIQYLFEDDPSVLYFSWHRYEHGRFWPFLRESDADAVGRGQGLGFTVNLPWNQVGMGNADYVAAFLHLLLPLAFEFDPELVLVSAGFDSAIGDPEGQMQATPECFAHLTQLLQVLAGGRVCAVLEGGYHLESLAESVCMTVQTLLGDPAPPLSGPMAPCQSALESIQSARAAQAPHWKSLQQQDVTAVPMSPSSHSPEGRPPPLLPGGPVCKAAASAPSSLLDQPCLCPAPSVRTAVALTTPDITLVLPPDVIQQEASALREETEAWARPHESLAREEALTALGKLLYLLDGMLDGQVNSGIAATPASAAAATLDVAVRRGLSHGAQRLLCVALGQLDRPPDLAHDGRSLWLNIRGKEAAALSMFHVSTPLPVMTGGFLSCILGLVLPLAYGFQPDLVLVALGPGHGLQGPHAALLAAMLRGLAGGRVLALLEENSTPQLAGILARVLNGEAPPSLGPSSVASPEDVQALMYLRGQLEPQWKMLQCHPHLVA
Nature of the assay: In-cell target engagement (NanoBRET) assay, NanoLuc-HDAC10. Type of assay: binding. From the text:
We next investigated if accumulation of lysosomes was also affected by inhibition of HDAC6 and HDAC10, respectively. […] Since no bona fide downstream target protein of HDAC10 has been described to date, we performed an in-cell target engagement (NanoBRET) assay that measures competitive displacement of a fluorescently-labeled tracer from NanoLuc® Luciferase coupled HDAC10 enzyme. […] To exclude that lysosomal accumulation after treatment with HDAC6/10 inhibitors was caused by off-target inhibition of class I HDACs, we treated BE(2)-C cells with 1 mM class I HDAC inhibitor valproic acid (VPA).
(§1) HeLa cells, stabily transfected with NanoBRET plasmids NanoLuc®-HDAC6 FL Fusion Vector and NanoLuc®-HDAC10 FL Fusion Vector (Promega, Madison, WI, USA) were seeded at 20.000 cells/well in white 96 well plates. Without further incubation, tracer (0.3 µM) and drugs were added in separate steps and plates were placed in a tissue culture incubator for 2 h. For NanoBRET quantification, plates were put at room temperature for 10 minutes. Nanoglow substrate, diluted in OptiMEM without phenol red, was added and measured within 10 minutes in an OPTIMA plate reader (460 nm emission for donor and 610LP filter for acceptor). The BRET signal was calculated by the ratio of acceptor signal and donor signal.

The target in assay [1] is T2, HDAC6 (Homo sapiens, UniProt Q9UBN7).
T2 sequence (Q9UBN7 1-1215): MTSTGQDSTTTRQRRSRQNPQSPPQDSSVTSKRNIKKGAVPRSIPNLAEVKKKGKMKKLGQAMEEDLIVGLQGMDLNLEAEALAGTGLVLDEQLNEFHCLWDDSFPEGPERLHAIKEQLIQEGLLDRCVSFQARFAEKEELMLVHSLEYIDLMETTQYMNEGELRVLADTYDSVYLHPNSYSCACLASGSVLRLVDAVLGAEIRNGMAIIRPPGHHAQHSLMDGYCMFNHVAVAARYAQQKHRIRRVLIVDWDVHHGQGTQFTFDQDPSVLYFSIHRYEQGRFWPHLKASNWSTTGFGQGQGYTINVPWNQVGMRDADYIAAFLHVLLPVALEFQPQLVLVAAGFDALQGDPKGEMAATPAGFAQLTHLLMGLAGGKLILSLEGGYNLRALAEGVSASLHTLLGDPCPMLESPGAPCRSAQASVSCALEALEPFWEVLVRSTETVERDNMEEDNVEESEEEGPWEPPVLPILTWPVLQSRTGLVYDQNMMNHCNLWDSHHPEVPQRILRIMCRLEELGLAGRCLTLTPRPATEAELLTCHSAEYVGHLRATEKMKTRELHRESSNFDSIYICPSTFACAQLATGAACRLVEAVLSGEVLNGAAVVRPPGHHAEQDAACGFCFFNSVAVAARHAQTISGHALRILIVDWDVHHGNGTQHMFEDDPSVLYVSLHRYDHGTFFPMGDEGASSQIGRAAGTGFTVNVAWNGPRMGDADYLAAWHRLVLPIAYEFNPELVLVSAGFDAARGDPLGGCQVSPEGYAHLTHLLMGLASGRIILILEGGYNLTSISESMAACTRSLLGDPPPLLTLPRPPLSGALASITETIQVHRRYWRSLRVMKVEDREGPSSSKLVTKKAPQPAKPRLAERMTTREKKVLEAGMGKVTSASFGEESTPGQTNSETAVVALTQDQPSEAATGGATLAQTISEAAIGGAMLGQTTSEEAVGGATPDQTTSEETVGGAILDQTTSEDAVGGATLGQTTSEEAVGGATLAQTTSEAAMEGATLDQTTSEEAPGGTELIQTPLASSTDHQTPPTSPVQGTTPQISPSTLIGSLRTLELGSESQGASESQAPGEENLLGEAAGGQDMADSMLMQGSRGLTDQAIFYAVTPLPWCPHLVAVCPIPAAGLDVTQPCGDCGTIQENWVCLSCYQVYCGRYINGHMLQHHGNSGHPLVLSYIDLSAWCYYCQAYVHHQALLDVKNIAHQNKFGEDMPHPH
Nature of the assay: In-cell target engagement (NanoBRET) assay, NanoLuc-HDAC6. The format is binding. Conditions: HeLa cells stably transfected with NanoLuc-HDAC6, 2 h. The protocol:
as §1

The test system of assay [2] is BE(2)-C cells. Nature of the assay: Flow cytometric analysis of LysoTracker DND-99 staining (lysosomal accumulation). The format is cell-based, human. The conditions noted are these: 24 h treatment. The protocol: Six days after siRNA transfection or 24 h after treatment with HDAC or lysosomal inhibitors, cells were stained for 1 h with 50 nM LysoTracker® Red DND-99 in medium under standard cell culture conditions. Cells were washed with ice-cold RPMI w/o phenol-red and detached using Trypsin/EDTA for 3 minutes at 37 °C. Cells were centrifuged, resuspended in RPMI w/o phenol red and LysoTracker® Red fluorescence was quantified on a BD FACSCanto II platform using the PE filter setting.

In assay [3] the test system is HDAC6. The assay is described as follows: Western blot analysis of tubulin K40 acetylation as a marker for HDAC6 inhibition. The format is cell-based, human. The conditions noted are these: 24 h treatment. As for the experimental part: Western blot analysis was performed as previously described. The following antibodies were used: anti-HDAC6 (sc-11420, Santa Cruz), anti-HDAC10 (H3413, Sigma), anti-acetylated histone H3 (06-911, Merck Millipore), anti-histone H3 (9715, Cell Signaling Technology, Cambridge UK), anti-LAMP-1 (H4A3, DHSB, Iowa City, IA, USA), anti-LAMP-2 (H4B4; Santa Cruz Biotechnology), anti-acetylated tubulin (6–11B-1; Sigma), anti-tubulin (2148, Cell Signaling Technology), anti P-glycoprotein (13978 S, Cell Signaling Technology) and anti-β-actin (clone AC-15; Sigma).

The subject of assay [4] is BE(2)-C cells. Nature of the assay: Flow cytometric quantification of intracellular doxorubicin accumulation, BE(2)-C. The format is cell-based, human. The conditions noted are these: 100 ng/ml doxorubicin, 24 h co-treatment. The protocol:
For flow cytometric quantification of intracellular doxorubicin after HDAC6/10 inhibition, BE(2)-C, SK-N-AS, IMR-32, HAP1 wild type and HDAC10 knockout cells were seeded in 6-well dishes at a density of 1.5 ∗ 10^5 cells/well (BE(2)-C and SK-N-AS, HAP1) and 3 ∗ 10^5 cells/well (IMR-32). Cells were treated with 25 ng/ml, 50 ng/ml, 100 ng/ml or 1 µg/ml doxorubicin, respectively, for 3–48 h (see respective figure legend). Where indicated, cells were co-treated with HDAC6/10 or lysosomal inhibitors. In case of co-treatment with vacuolin-1, vacuolin-1 was directly added to cells under doxorubicin treatment 1 h or 24 h prior to analysis. Flow cytometric quantification of intracellular doxorubicin after HDAC6, HDAC10 or P-glycoprotein knockdown in BE(2)-C cells was performed 5 days (P-glycoprotein) or 6 days (HDAC6/10) after transfection with siRNA. To that end, cells were seeded 3–4 days after transfection into 6-well dishes at 1.5 ∗ 10^5 cells per well and treated with 100 ng/ml doxorubicin +/− HDAC6/10 and lysosomal inhibitors for the last 24 h. After doxorubicin treatment, BE(2)-C, SK-N-AS, IMR-32 and HAP1 cells were washed with ice-cold RPMI w/o phenol-red and detached using Trypsin/EDTA for 3 minutes at 37 °C. Cells were centrifuged, resuspended in RPMI w/o phenol red and doxorubicin fluorescence was quantified on a BD FACSCanto II platform using the PE filter setting.

pEC50, pIC50: −log10 of the molar value. A value given as a limit tells only on which side of the number the result lay.

With `CN1C(=O)C2CN(Cc3c2c2ccccc2n3Cc2ccc(C(=O)NO)cc2)C1=O` (stereo not shown) [Marbostat-100], at HDAC10, the “concentrations at which HDAC10 is inhibited (NanoBRET)” value was “above 150 nM”. The pIC50 against HDAC10 (HeLa cells stably transfected with NanoLuc-HDAC10, 2 h) is 6.25; against HDAC6 [1] it was 8.66. Moreover, the “concentrations at which LysoTracker staining is increased” value in the assay with BE(2)-C cells [2] is given as “above 1 µM”. The pEC50 with BE(2)-C cells [2] (read-out: LysoTracker staining EC50) is 5.18. Further, in the assay with HDAC6 [3], the “concentrations inducing tubulin acetylation” value is recorded as no less than 50 nM. In addition, the “concentrations at which intracellular doxorubicin levels are increased” value in the assay on BE(2)-C cells [4] is no less than 5 µM.
